Experimental data published in ChEMBL document CHEMBL1145106, “The role of the side chain in determining relative delta- and kappa-affinity in C5'-substituted analogues of naltrindole” (J Med Chem, 2003).

Key:
[1] = molecular target: T1, Delta-type opioid receptor (Homo sapiens, UniProt P41143); settings: CHO
Description: Ability to displace DPDPE from human recombinant Opioid receptor delta 1 in CHO cells using [35S]- GTP-gamma S Assay

[2] = molecular target: T2, Kappa-type opioid receptor (Homo sapiens, UniProt P41145); settings: CHO
Description: Ability to displace U-69,593 from human recombinant Opioid receptor kappa 1 in CHO cells using [35S]- GTP-gamma S Assay

Mu-type opioid receptor [3] = molecular target: T3, Mu-type opioid receptor (Homo sapiens, UniProt P35372); settings: CHO
T3 sequence (P35372 whole entry): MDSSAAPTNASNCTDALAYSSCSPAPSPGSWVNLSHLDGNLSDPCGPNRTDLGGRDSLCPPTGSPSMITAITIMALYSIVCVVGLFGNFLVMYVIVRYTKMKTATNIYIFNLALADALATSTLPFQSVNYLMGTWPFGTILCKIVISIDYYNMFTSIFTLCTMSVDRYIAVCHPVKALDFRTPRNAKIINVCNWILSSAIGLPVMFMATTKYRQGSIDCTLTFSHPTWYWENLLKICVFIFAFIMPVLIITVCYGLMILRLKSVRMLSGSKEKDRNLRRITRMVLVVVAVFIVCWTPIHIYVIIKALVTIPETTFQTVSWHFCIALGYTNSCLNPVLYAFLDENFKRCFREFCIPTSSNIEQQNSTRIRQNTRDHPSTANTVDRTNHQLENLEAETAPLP
Description: Ability to displace DAMGO from human recombinant Opioid receptor mu 1 in CHO cells using [35S]- GTP-gamma S Assay

[4] = molecular target: T1, Delta-type opioid receptor; assay: Ability to displace [3H]DPDPE from human recombinant Opioid receptor delta 1 in CHO cells; assay type: cell-based
Mu-type opioid receptor [5] = molecular target: T3, Mu-type opioid receptor; assay: Ability to displace [3H]DAMGO from human recombinant Opioid receptor mu 1 in CHO cells; assay type: cell-based
[6] = molecular target: T2, Kappa-type opioid receptor; assay type: cell-based, CHO
Description: Ability to displace [3H]U-69593 from human recombinant Opioid receptor kappa 1 in CHO cells

T1 sequence (P41143 whole entry): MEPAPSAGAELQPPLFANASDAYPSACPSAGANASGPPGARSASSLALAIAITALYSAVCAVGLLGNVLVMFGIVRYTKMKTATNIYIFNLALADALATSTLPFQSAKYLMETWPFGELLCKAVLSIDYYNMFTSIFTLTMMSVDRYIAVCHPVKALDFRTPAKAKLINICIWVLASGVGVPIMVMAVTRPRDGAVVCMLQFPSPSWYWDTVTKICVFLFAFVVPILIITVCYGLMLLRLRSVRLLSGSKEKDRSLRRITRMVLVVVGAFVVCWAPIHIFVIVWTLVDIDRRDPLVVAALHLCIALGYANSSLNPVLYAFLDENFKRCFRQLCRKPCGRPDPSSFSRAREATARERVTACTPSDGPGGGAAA
T2 sequence (P41145 whole entry): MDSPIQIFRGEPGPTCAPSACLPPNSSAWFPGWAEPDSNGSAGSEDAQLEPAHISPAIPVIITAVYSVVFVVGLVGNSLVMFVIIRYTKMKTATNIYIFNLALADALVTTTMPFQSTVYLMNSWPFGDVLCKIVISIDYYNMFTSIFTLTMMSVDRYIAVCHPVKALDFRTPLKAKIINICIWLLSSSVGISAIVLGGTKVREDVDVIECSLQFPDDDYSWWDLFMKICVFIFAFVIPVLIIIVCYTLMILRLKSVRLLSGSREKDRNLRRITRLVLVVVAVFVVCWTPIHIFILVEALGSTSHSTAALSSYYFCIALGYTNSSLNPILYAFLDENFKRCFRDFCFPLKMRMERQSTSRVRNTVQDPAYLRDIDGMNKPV

Row | SMILES | Ke [1] | Ke [2] | Ke (Mu-type opioid receptor [3]) | Ki [4] | Ki (Mu-type opioid receptor [5]) | Ki [6]
1 | CCCCC/N=C(\N)Cc1ccc2[nH]c3c(c2c1)C[C@@]1(O)C2Cc4ccc(O)c5c4[C@@]1(CCN2CC1CC1)[C@H]3O5 | 3.83 nM | 0.21 nM | 5.61 nM | – | – | –
2 | CCCCCCCNC(=O)c1ccc2[nH]c3c(c2c1)C[C@@]1(O)C2Cc4ccc(O)c5c4[C@@]1(CCN2CC1CC1)[C@H]3O5 | 6.95 nM | 0.29 nM | 6.86 nM | 70.2 nM | 61.9 nM | 21.9 nM
3 | CCC/N=C(\N)Cc1ccc2[nH]c3c(c2c1)C[C@@]1(O)C2Cc4ccc(O)c5c4[C@@]1(CCN2CC1CC1)[C@H]3O5 | 4.41 nM | 0.05 nM | 3.19 nM | – | – | –
4 | COc1ccc(CNC(=O)c2ccc3[nH]c4c(c3c2)C[C@@]2(O)C3Cc5ccc(O)c6c5[C@@]2(CCN3CC2CC2)[C@H]4O6)cc1 | 6.2 nM | 0.28 nM | 0.94 nM | 7.41 nM | 4.64 nM | 2.11 nM
5 | CCCC(=O)NCCc1ccc2[nH]c3c(c2c1)C[C@@]1(O)C2Cc4ccc(O)c5c4[C@@]1(CCN2CC1CC1)[C@H]3O5 | 0.3 nM | 0.35 nM | 3.17 nM | 3.7 nM | 31 nM | 0.85 nM
6 | CCC(=N)NCCc1ccc2[nH]c3c(c2c1)C[C@@]1(O)C2Cc4ccc(O)c5c4[C@@]1(CCN2CC1CC1)[C@H]3O5 | 1.77 nM | 0.24 nM | 4.7 nM | 21.8 nM | 26.4 nM | 0.28 nM
7 | CC(C)CC(=N)NCCc1ccc2[nH]c3c(c2c1)C[C@@]1(O)C2Cc4ccc(O)c5c4[C@@]1(CCN2CC1CC1)[C@H]3O5 | 5.23 nM | 0.32 nM | 14.7 nM | 20.1 nM | 47.4 nM | 1.39 nM
8 | CCCCC(=N)NCCc1ccc2[nH]c3c(c2c1)C[C@@]1(O)C2Cc4ccc(O)c5c4[C@@]1(CCN2CC1CC1)[C@H]3O5 | 3.31 nM | 0.17 nM | 5.33 nM | 38.2 nM | 219 nM | 0.3 nM
9 | CCCCC(=O)NCCc1ccc2[nH]c3c(c2c1)C[C@@]1(O)C2Cc4ccc(O)c5c4[C@@]1(CCN2CC1CC1)[C@H]3O5 | 0.23 nM | 0.46 nM | 3.37 nM | 7.67 nM | 31.6 nM | 0.68 nM
10 | CCCCCNC(=N)Cc1ccc2[nH]c3c(c2c1)C[C@@]1(O)C2Cc4ccc(O)c5c4[C@@]1(CCN2CC1CC1)[C@H]3O5 | – | – | – | 17 nM | 25.3 nM | 1.44 nM
11 | O=C(NCc1ccccc1)c1ccc2[nH]c3c(c2c1)C[C@@]1(O)C2Cc4ccc(O)c5c4[C@@]1(CCN2CC1CC1)[C@H]3O5 | 2.99 nM | 0.73 nM | 4.4 nM | 11.2 nM | 43.9 nM | 10.3 nM
12 | CCCC(=N)NCCc1ccc2[nH]c3c(c2c1)C[C@@]1(O)C2Cc4ccc(O)c5c4[C@@]1(CCN2CC1CC1)[C@H]3O5 | 1.89 nM | 0.18 nM | 4.21 nM | 27.6 nM | 40.8 nM | 0.25 nM
13 | CC(=N)NCCc1ccc2[nH]c3c(c2c1)C[C@@]1(O)C2Cc4ccc(O)c5c4[C@@]1(CCN2CC1CC1)[C@H]3O5 | 1.79 nM | 0.21 nM | 3.78 nM | 21.4 nM | 22.3 nM | 0.29 nM
14 | CCCCCCNC(=O)NCCc1ccc2[nH]c3c(c2c1)C[C@@]1(O)C2Cc4ccc(O)c5c4[C@@]1(CCN2CC1CC1)[C@H]3O5 | 1.04 nM | 1.71 nM | 1.79 nM | 2.25 nM | 13.6 nM | 8.13 nM
15 | O=C(NCCc1ccccc1)c1ccc2[nH]c3c(c2c1)C[C@@]1(O)C2Cc4ccc(O)c5c4[C@@]1(CCN2CC1CC1)[C@H]3O5 | 1.21 nM | 0.17 nM | 2.7 nM | 3.53 nM | 23.5 nM | 2.21 nM
16 | O=C(NCCCCc1ccccc1)c1ccc2[nH]c3c(c2c1)C[C@@]1(O)C2Cc4ccc(O)c5c4[C@@]1(CCN2CC1CC1)[C@H]3O5 | 5.15 nM | 0.26 nM | 2.78 nM | 59.5 nM | 37 nM | 6.18 nM
17 | CCCCCCC/N=C(\N)Cc1ccc2[nH]c3c(c2c1)C[C@@]1(O)C2Cc4ccc(O)c5c4[C@@]1(CCN2CC1CC1)[C@H]3O5 | 5.83 nM | 0.37 nM | 2.04 nM | – | – | –
18 | CCC(=O)NCCc1ccc2[nH]c3c(c2c1)C[C@@]1(O)C2Cc4ccc(O)c5c4[C@@]1(CCN2CC1CC1)[C@H]3O5 | 0.38 nM | 0.48 nM | 4.94 nM | 3.12 nM | 23 nM | 1.57 nM
19 | CCNC(=O)NCCc1ccc2[nH]c3c(c2c1)C[C@@]1(O)C2Cc4ccc(O)c5c4[C@@]1(CCN2CC1CC1)[C@H]3O5 | 0.65 nM | 2.47 nM | 1.6 nM | 2.43 nM | 37.6 nM | 12.3 nM
20 | CCCNC(=N)Cc1ccc2[nH]c3c(c2c1)C[C@@]1(O)C2Cc4ccc(O)c5c4[C@@]1(CCN2CC1CC1)[C@H]3O5 | – | – | – | 5.29 nM | 13.5 nM | 1.6 nM
21 | CCCCNC(=O)NCCc1ccc2[nH]c3c(c2c1)C[C@@]1(O)C2Cc4ccc(O)c5c4[C@@]1(CCN2CC1CC1)[C@H]3O5 | 0.53 nM | 1.52 nM | 1.63 nM | 2.6 nM | 4.8 nM | 6.33 nM
22 | CCCCCCCNC(=N)Cc1ccc2[nH]c3c(c2c1)C[C@@]1(O)C2Cc4ccc(O)c5c4[C@@]1(CCN2CC1CC1)[C@H]3O5 | – | – | – | 7.33 nM | 56.6 nM | 5.61 nM
